Laboratory results as given in patent publication US6703011B2, “Application of film forming technology to fragrance control release systems; and resultant fragrance control release systems” (International Flavors & Fragrances Inc., priority 1998, dated 2004).
Structures can show the parent of a compound that is named as a salt.

Columns and labels:
[1] = vapor pressure of fragrance components
[2] = FRAGRANCE PERMEATION TEST (diffusion cell, weight loss); type: physicochemical; settings: for permeation rate through hydroxypropyl cellulose / permeation rate through polyvinyl alcohol: 35° C., film thickness about 150 microns; for permeation rate through polyvinyl alcohol: FIG. 5C (98% hydrolyzed polyvinyl acetate)
Description: Referring to FIGS. 4A and 4B, fluid 46 is located in jar 44. Jar 44 has sidearm 45. The fluid 46 reaches fluid level 47. Directly in line with fluid level 47 is membrane 41. The diffusion membrane 41 is held in place with flanges 43 and jar lip 42, using bolts 401a and 401b which secures the flange in place. The sidearm 45 is closed using closure 49. The permeability apparatus is shown using reference numeral 40. The FRAGRANCE PERMEABILITY TEST is based on the use of the apparatus of FIGS. 4A and 4B. The weight of membrane 41 is taken, initially, before being placed within the flange 43 and the jar lip 42. Substance 46 for which the permeability is to be measured is placed into jar 44 to fluid level 47. The apparatus containing fluid 46 remains in place for a fixed period of time. At the end of that period of time, bolts 401a and 401b as well as 401c are loosened, the flange 43 removed and membrane 41 is removed and weighed, thereby gathering sufficient data to determine the permeability of the particular substance 46. The design and development of fragrance controlled release systems is built upon an understanding of the transport mechanisms of aroma chemicals and fragrances through polymers. The ability of the film forming polymers to sustain fragrance release was determined by permeation studies. A special diffusion cell has been developed to measure the steady state permeation of aroma chemicals and fragrances through polymeric films using weight loss. […] The polymeric film is mounted on the diffusion cell and is tightly secured by a glass ring fitted with three screws. […] The diffusant (fragrances, single or mixture of aroma chemicals) is kept in contact with the polymer film throughout the experiment period by filling the diffusion cell arm with the diffusant. The permeation rate of the diffusant is determined by monitoring the changes in the diffusion cell weight. The permeability coefficient, or permeability P, is useful in describing the rate of mass transport through a polymer at steady state. Permeability is related to two basic properties: diffusion and solubility. The permeability coefficient can be expressed by the diffusion coefficient (D) and the solubility coefficient (S). Their relationship is described by the following equation: This value is the actual weight loss that is being measured during our experiments. […] P=DS and the use of neat material (not dilution in a solvent), one can then solve the equation to determine the permeability coefficient using the cell dimension (surface area, A), the thickness of the film (L) and the weight loss data (Q=dM/dt): [formula] The effect of fragrance physical and chemical properties on its permeation rate through the film forming polymers was studied using the experimental setup described, supra. FIG. 5B, described in detail, supra, presents the effect of log10P on the permeation rate of the two model aroma chemicals through hydroxypropyl cellulose. The permeation studies were carried out at 35° C., and the temperature was kept constant within ±0.5 C. throughout the experiment period. […] The aroma chemicals studied, ethyl […] β-pinene, have approximately the same values of vapor pressure, but differ in their solubility in water. Ethyl […] lower value of log10P and thus is more water soluble than β-pinene. The permeation rates on two model aroma chemicals having a high and low log10P through a polyvinyl alcohol, having crystalline and better packed structure, were also studied and are illustrated in FIG. 5C, described in detail, supra. The permeation studies were carried out at 35° C., and the temperature was kept constant within +0.5° C. throughout the experiment period. […] The aroma chemicals studied, ethyl […] β-pinene, have about the same values of vapor pressure, but differ in their solubility in water. Ethyl […] lower value of log10P and thus is more water soluble than β-pinene.

[3] = evaporation rate of aroma chemical without the polymer; type: physicochemical; settings: 35° C.
Procedure: The effect of fragrance physical and chemical properties on its permeation rate through the film forming polymers was studied using the experimental setup described, supra. FIG. 5B, described in detail, supra, presents the effect of log10P on the permeation rate of the two model aroma chemicals through hydroxypropyl cellulose. The permeation studies were carried out at 35° C., and the temperature was kept constant within ±0.5 C. throughout the experiment period. The thickness of the films studied was about 150 microns. The aroma chemicals studied, ethyl […] β-pinene, have approximately the same values of vapor pressure, but differ in their solubility in water. Ethyl […] lower value of log10P and thus is more water soluble than β-pinene. The permeation rates on two model aroma chemicals having a high and low log10P through a polyvinyl alcohol, having crystalline and better packed structure, were also studied and are illustrated in FIG. 5C, described in detail, supra. The permeation studies were carried out at 35° C., and the temperature was kept constant within +0.5° C. throughout the experiment period. The thickness of the films studied was about 150 microns. The aroma chemicals studied, ethyl […] β-pinene, have about the same values of vapor pressure, but differ in their solubility in water. Ethyl […] lower value of log10P and thus is more water soluble than β-pinene.

[4] = polymer film material: carboxymethyl cellulose
[5] = polymer film material: polyvinyl alcohol (74% hydrolyzed)
[6] = polymer film material: polyvinyl alcohol (98% hydrolyzed)

## CC1=CC(C)C(C=O)CC1 (stereo not drawn)
[1]; at 25° C.
  Vapor Pressure: 0.3 mm/Hg

## CC(=O)O[C@@H]1C[C@H]2CC[C@]1(C)C2(C)C (racemic) [isobornyl acetate]
[1]; at 25° C.
  Vapor Pressure: 0.09 mm/Hg

## CC(OC=O)C1CCCC(C)(C)C1 (stereo not drawn) [C.P. FORMATE®, the formic acid ester of 1,1-dimethyl-3(1-hydroxyethyl)cyclohexane, reference compound]
[2]; polymer film material: hydroxypropyl cellulose (molecular weight = 100,000)
  Permeation: 2.5 × 10^−4 mg-mm thickness/cm^2 area - mi
[1]; figure legends, unit inferred
  Vapor Pressure: 0.1 mmHg

## CC1(C)C2CCC1(C)C(O)C2 (stereo not drawn) [Example 1-borneol, 1-borneol]
[1]; at 25° C.
  Vapor Pressure: 0.02 mm/Hg

## CC(=O)C1(C)CC2=C(CCCC2(C)C)CC1C (stereo not drawn) [ISO E SUPER ®]
[1]; at 25° C.
  Vapor Pressure: 0.002 mm/Hg

## CC(C=O)Cc1ccc(C(C)(C)C)cc1 (stereo not drawn) [LILIAL ®]
[1]; at 25° C.
  Vapor Pressure: 0.003 mm/Hg

## CC(=O)c1cc2c(cc1C)C(C)(C)C(C)CC2(C)C (stereo not drawn) [TONALID ®]
[1]; at 25° C.
  Vapor Pressure: 0.0001 mm/Hg

## CC(=O)OC1CCC(C(C)(C)C)CC1 (stereo not drawn) [VERTENEX ® HC]
[1]; at 25° C.
  Vapor Pressure: 0.03 mm/Hg

## C=CCOC(=O)COCCC(C)C [allyl amyl glycolate]
[1]; at 25° C.
  Vapor Pressure: 0.07 mm/Hg

## CC(=O)OCc1ccccc1 [benzyl acetate]
[1]; at 25° C.
  Vapor Pressure: 0.1 mm/Hg

## CC12CCC(CC1=O)C2(C)C (stereo not drawn) [camphor]
[1]; at 25° C.
  Vapor Pressure: 0.1 mm/Hg

## CC/C=C\CCOC(C)=O [cis-3-hexenyl acetate]
[1]; at 25° C.
  Vapor Pressure: 2.0 mm/Hg

## CC/C=C\CCOC(=O)c1ccccc1O [cis-3-hexenyl salicylate]
[1]; at 25° C.
  Vapor Pressure: 0.0008 mm/Hg

## CC(C)=CCCC(C)CCO (stereo not drawn) [citronellol]
[1]; at 25° C.
  Vapor Pressure: 0.009 mm/Hg

## CC(C=O)Cc1ccc(C(C)C)cc1 (stereo not drawn) [cyclamal]
[1]; at 25° C.
  Vapor Pressure: 0.004 mm/Hg

## C=CC(C)CCCC(C)(C)O (stereo not drawn) [dihydromyrcenol]
[1]; at 25° C.
  Vapor Pressure: 0.09 mm/Hg

## C/C=C(\C)C(=O)OCC [ethyl tiglate]
[2]
  permeation rate through hydroxypropyl cellulose: exactly the same as its evaporation rate without the polymer
  permeation rate through polyvinyl alcohol: about 1.8×10^−4
[2]; listed as Ethyl tiglate
  permeation rate through hydroxypropyl cellulose: equal to its evaporation rate
[2]; [4]
  Permeation: 2.8 × 10^−3 mg-mm thickness/cm^2 area - mi
[2]; [5]
  Permeation: 5 × 10^−3 mg-mm thickness/cm^2 area - mi
[2]; [6]
  Permeation: 2 × 10^−3 mg-mm thickness/cm^2 area - mi
[2]; through positively charged polymers POLYMER LK and POLYMER LR-400 (FIG. 5I)
  overall permeation rate: 5.8×10^−4
[1]; figure legends, unit inferred
  Vapor Pressure: 1.8 mmHg

## CCCCCCC(C=O)=Cc1ccccc1 [hexyl cinnamic aldehyde]
[1]; at 25° C.
  Vapor Pressure: 0.0003 mm/Hg

## C=CC(C)(O)CCC=C(C)C (stereo not drawn) [linalool]
[1]; at 25° C.
  Vapor Pressure: 0.05 mm/Hg

## C=CC(C)(CCC=C(C)C)OC(C)=O (stereo not drawn) [linalyl acetate]
[1]; at 25° C.
  Vapor Pressure: 0.07 mm/Hg

## C=CCc1ccc(OC)cc1 [methyl chavicol]
[1]; at 25° C.
  Vapor Pressure: 0.09 mm/Hg

## CCCCCCCCCC(C)C=O (stereo not drawn) [methyl nonyl acetaldehyde]
[1]; at 25° C.
  Vapor Pressure: 0.009 mm/Hg

## CCCCCCCC=O [n-octanal]
[2]; not told
  Permeation: 2.8 × 10^−3 mg-mm thickness/cm^2 area - mi

## CC(=O)OC(C)c1ccccc1 (stereo not drawn) [styralyl acetate]
[1]; at 25° C.
  Vapor Pressure: 0.1 mm/Hg

## CC1=CCC(C(C)(C)O)CC1 (stereo not drawn) [α-terpineol]
[1]; at 25° C.
  Vapor Pressure: 0.02 mm/Hg

## CC(=O)/C=C/C1=C(C)CCCC1(C)C [β-ionone]
[1]; at 25° C.
  Vapor Pressure: 0.006 mm/Hg

## OCCc1ccccc1 [β-phenyl ethyl alcohol]
[1]; at 25° C.
  Vapor Pressure: 0.02 mm/Hg

## C=C1CCC2CC1C2(C)C (stereo not drawn) [β-pinene]
[2]
  permeation rate through hydroxypropyl cellulose: 2.7×10^−4
  permeation rate through polyvinyl alcohol: about 1.8×10^−4
[2]; [4]
  Permeation: 2.8 × 10^−3 mg-mm thickness/cm^2 area - mi
[2]; [5]
  Permeation: 2.5 × 10^−3 mg-mm thickness/cm^2 area - mi
[2]; [6]
  Permeation: 2 × 10^−3 mg-mm thickness/cm^2 area - mi
[2]; through POLYMER LK (FIG. 5K, graph 596)
  permeation rate: 3.9×10^−5
[2]; through POLYMER LR-400 (FIG. 5K, graph 595)
  permeation rate: 7.5×10^−5
[3]
  evaporation rate without the polymer: about 0.15
[1]; figure legends, unit inferred
  Vapor Pressure: 2.2 mmHg

## peach aldehyde coeur
[1]; at 25° C.
  Vapor Pressure: 0.002 mm/Hg
